“And” between values parts separate entries of the source, which are not always exact repeats. Equal entries are not always repeated.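 Test compounds were applied to cells in 96-well plates for 48 hours at 5 doses. GI50: concentration for 50% inhibition of growth. The concentration for full growth arrest is given as TGI.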
What was measured:
Test in all cases: inhibition of tumour cell growth, NCI panel, 48 h
DLD-1 colon = tested on: DLD-1 colon
DMS 114 small cell lung = tested on: DMS 114 small cell lung
HOP-18 NSCLC = tested on: HOP-18 NSCLC
HS 578T breast = tested on: HS 578T breast
MDA-MB-231 breast = tested on: MDA-MB-231 breast
MDA-N = tested on: MDA-N
RXF-631 renal = tested on: RXF-631 renal
T-47D breast = tested on: T-47D breast

Row | Compound | TGI (DLD-1 colon) | TGI (DMS 114 small cell lung) | TGI (HOP-18 NSCLC) | TGI (HS 578T breast) | TGI (MDA-MB-231 breast) | TGI (MDA-N) | TGI (RXF-631 renal) | GI50 (DLD-1 colon) | GI50 (HOP-18 NSCLC) | GI50 (RXF-631 renal) | GI50 (MDA-N) | GI50 (T-47D breast) | TGI (T-47D breast)
1 | CCCC(O)[C@@]1(CC)CC(C)C(O)(C2(C)C[C@H](C)[C@@H](C(CC)C(=O)C(C)[C@@H](O)[C@H](C)C3OC(O)(C(CC)C(=O)O)[C@@H](C)C(O)C3CC)O2)O1 (some centres not stated) | 8.86 µM | 1.08 µM | 23.9 µM | 2.99 µM | 2.11 µM | 1.86 µM | 1.93 µM | – | – | – | – | – | –
2 | CCCCCCCCCCCCCC(=O)O[C@H]1CC[C@H](NC(=O)[C@H](OC)[C@H](O)[C@@H](O)[C@H](O)/C=C/C(C)C)C(=O)N(C)C1 | 15 µM and > 23.8 µM | 0.817 µM | 15 µM and > 23.8 µM | – | – | – | 15 µM and 4.07 µM | 0.00278 µM | 11.3 µM | 0.00238 µM | – | – | –
3 | O=C(Nc1nc(=S)[nH][nH]1)C(=O)C(c1cnc2ccc([N+](=O)[O-])cc2n1)[N+](=O)[O-] (configuration not stated) | > 100 µM | > 100 µM | > 100 µM | – | – | – | > 100 µM | – | – | – | – | – | –
4 | CC1CCCP(=O)(c2ccccc2)CCC1 (configuration not stated) | > 100 µM | > 100 µM | 96.4 µM | – | – | – | > 100 µM | – | – | – | – | – | –
5 | O=C1C=CC2(CCC23C=CC(=O)O3)O1 (configuration not stated) | > 100 µM | > 100 µM | > 100 µM | – | – | – | > 100 µM | – | – | – | – | – | –
6 | C/C(=N\NC(=S)N1CCC1)c1ccccn1 | > 100 µM | – | > 100 µM | > 100 µM | > 100 µM | > 100 µM | > 64.6 µM | – | – | – | 0.476 µM | 0.0395 µM | > 100 µM
7 | O=C([O-])c1ccc([I+]c2ccccc2)cc1 | > 100 µM | > 100 µM | > 100 µM | – | – | – | > 100 µM | – | – | – | – | – | –
8 | COS(=O)c1cc(Cl)cc(Cl)c1OC(=O)CSSCC(=O)Oc1c(Cl)cc(Cl)cc1S(=O)OC (configuration not stated) | 40.7 µM | 35.3 µM | > 100 µM | – | – | – | 63.7 µM | – | – | – | – | – | –
9 | COc1ccc(/C=C/C(=O)c2c(-c3ccccc3)nn(C)c(=O)c2N2CCCCC2)cc1 | 82.6 µM | 78.4 µM | 73.9 µM | – | – | – | > 100 µM | – | – | – | – | – | –
10 | C[n+]1cn(CC(=O)c2ccccc2)c(C(N)=O)c1N | > 100 µM | 64.6 µM | > 100 µM | – | – | – | > 100 µM | – | – | – | – | – | –
11 | O=[N+]([O-])c1cccnc1S(=O)(=O)c1ccccc1 | 7.27 µM | 8.53 µM | 25.7 µM | – | – | – | 8.01 µM | – | – | – | – | – | –
12 | CNC(=O)OCc1nc(SSc2nc(COC(=O)NC)c(COC(=O)NC)n2C)n(C)c1COC(=O)NC | > 100 µM | > 100 µM | > 100 µM | – | – | – | > 100 µM | – | – | – | – | – | –
13 | CCCCCCCCCCCCCCCC(=O)OCC1OC(n2cc(F)c(=O)[nH]c2=O)C(NC(=O)OCc2ccccc2)C(O)C1O (configuration not stated) | – | 33.4 µM | 37.8 µM | – | – | – | 34.9 µM | – | – | – | – | – | –
